Broadly, the EC50 is the concentration needed to bring the measured effect to its halfway point.

The structures appear in SMILES notation. Like-named read-outs stand apart in the source and are kept apart here.

In data set [1] the test system is THP-1 cells. Kind of data set: THP-1 induction of FKBP51, GILZ, DUSP1. The data set is classed as cell-based, human. The note with it: for EC50: Homo sapiens, THP-1, no stimulus; for Max. eff., DUSP1 induction / Max. eff., FKBP51 induction / Max. eff., GILZ induction: THP-1, prednisolone = 100%. The protocol:
(§1) THP-1 cells were incubated with glucocorticoid in the presence of either DMSO (control) or IFNγ/TNFα (220 ng/ml/375 ng/ml). After 6 hours total RNA was isolated and further processed for microarray hybridization as described for the HepG2 cells. The data from all microarray experiments have been deposited in the NCBI Gene Expression Omnibus (GEO) under accession number (identifier will be included in proof). […] Expression of FKBP51, MCP-1, IL-6 and IL-8 protein was measured by specific […]; #A[…] [MCP-1], #A[…] [IL-6] and #A[…] [IL-8]) according to the manufacturer manual. […] Expression of FKBP51, DUSP1 and GILZ was measured by Q-PCR according to the same procedure as described for the HepG2 cells. In this case the following primer-pairs were used: for GAPDH: [NT] and [NT]; for FKBP51: [NT] and [NT]; for DUSP1: [NT] and [NT]; for GILZ: [NT] and [NT]. For the evaluation of protein expression, cells were incubated overnight with a whole dose range of compounds. Supernatants were collected to determine cytokine levels and cell lysates were generated by repeated freeze-thaw cycles to measure expression of FKBP51 protein. Expression of FKBP51, MCP-1, IL-6 and IL-8 was measured by specific […]; #A[…] [MCP-1], #A[…] [IL-6] and #A[…] [IL-8]) according to the manufacturer manual. […] Samples were incubated for 60 min at 23 C. […] Plates were measured using an EnVision-Alpha Reader.

The test system of data set [2] is THP-1 cells. Kind of data set: Gene expression profiling (microarray) in THP-1 cells. The class given is cell-based, human. The conditions noted are these: THP-1, 1 μM, 6 hours, top 25 genes, prednisolone set at 100%; for Max. eff., mean repression of genes, microarray: IFNγ/TNFα; for Max. eff., mean induction of genes, microarray: non-stimulated. The procedure: as §1

Data set [3] in a line: Mouse fasting blood glucose. The class given is in vivo. The note with it: oral daily 28 days; prednisolone 0.5 or 10 mg/kg/day, Org 214007-0 0.17 or 1.5 mg/kg/day; 9 hours fasting. The procedure:
Eighteen hours after the last oral treatment and 9 hours after start of starvation, blood samples were taken from the tail vein and directly used for glucose measurements using “One touch Ultra” glucose meter from Lifescan EuroFlash (Lifescan Benelux Beerse, Belgium). The mouse MIDA study was performed as described previously by van Dijk et al., [52]. […] On the third day, mice were cannulated in the right jugular vein. After 7 days of treatment, mice were placed in small Plexiglas cages, which allowed collection of blood samples frequently in freely moving mice. […] During the experiment blood glucose was measured and blood spots for GCMS measurements were collected from tail tips just before the start of the infusion and at hourly intervals. […] Glucose and paracetamol-glucuronic acid (Par-GLcUa) were extracted from blood spot and urine filter papers, respectively, derivatised, and measured by GC-MS, essentially as described previously, [52]. […] From isotope dilution and infusion rates, the flux rates of the following metabolic pathways could be calculated: 1) de novo synthesis of G6P, 2) glucokinase, 3) glucose-6-phosphatase, 4) glycogenolysis, and 5) glycogen synthesis. […]

The subject of data set [4] is muscle tissue from arthritic mice. Description: Microarray on muscle tissue mRNA from CIA mice. The conditions noted are these: day 21, 2.5 hours after final oral dose, 1.5 mg/kg prednisolone or 0.3 mg/kg Org 214007-0, prednisolone = 100%. The class given is in vivo, mouse. From the text:
Besides these groups of mice, one group of healthy mice (sham-immunized and vehicle-treated) was included. Collected tissue was used to isolate mRNA for microarray analysis. […] We also calculated a mean fold change for all induced and repressed genes by both compounds derived from this microarray. […] Two and a half hours after the final treatment animals were sacrificed and samples were collected from the thigh muscle (musculus tensor fasciae latae and musculus rectus femoris). Samples were stored immediately at −80°C and send to Covance (Princeton, New Jersey) for RNA extraction and subsequent analysis of gene expression on the Mouse Genome 430A 2.0 array. For statistical analysis, the. CEL files obtained after hybridization were analyzed with the R (www.r-project.org) and the BioConductor software package (www.bioconductor.org) as described previously. Normalization was done using gcrma. Building of the experimental design and calculation of the ratios was done with the limma package. Differentially expressed probe sets were selected on basis of the fold change and the adjusted p-value (Benjamini-Hochberg correction). Multivariate data analysis and clustering was done with standard methods in the R software package (www.r-project.org). A therapeutic index for Org 214007-0 was calculated in the same way as was described for the THP-1 microarray data.

Data set [5] has as its system hepatic glucose metabolism. Kind of data set: Mouse MIDA model for liver glucose metabolism. The class given is in vivo. The note with it: prednisolone 10 mg/kg, Org 214007-0 1.5 mg/kg; for glucokinase flux rate / gluconeogenic flux (de novo synthesis of glucose-6-phosphate) / glucose-6-phosphatase flux / glycogen phosphorylase flux / glycogen synthase flux rate / liver glucose balance / liver glycogen balance / metabolic clearance rate of blood glucose: 7 days p.o.; for fasting blood glucose levels vs vehicle: oral daily 7 days. The procedure:
Eighteen hours after the last oral treatment and 9 hours after start of starvation, blood samples were taken from the tail vein and directly used for glucose measurements using “One touch Ultra” glucose meter from Lifescan EuroFlash (Lifescan Benelux Beerse, Belgium). The mouse MIDA study was performed as described previously by van Dijk et al., [52]. […] On the third day, mice were cannulated in the right jugular vein. After 7 days of treatment, mice were placed in small Plexiglas cages, which allowed collection of blood samples frequently in freely moving mice. Twenty four hours after the final dose and after a 9 hours starving period, a tail vein blood sample was used for a glucose measurement after which mice were shortly anesthetized to attach the infusion lines before the experiment. Filter paper was placed under the wired floor cages to collect urine samples and replaced hourly. Mice received an infusion of a sterilized aqueous solution containing [U-^13C]glucose (13 μmol/ml), [2-^13C]glycerol (160 μmol/ml), [1-^2H]galactose (33 μmol/ml) and paracetamol (1 mg/ml) at a rate of 0.54 ml/hr for 6 hours. During the experiment blood glucose was measured and blood spots for GCMS measurements were collected from tail tips just before the start of the infusion and at hourly intervals. Blood spots and urine filter papers were air-dried and stored at room temperature until analysis. Glucose and paracetamol-glucuronic acid (Par-GLcUa) were extracted from blood spot and urine filter papers, respectively, derivatised, and measured by GC-MS, essentially as described previously, [52]. The fractional isotopomer distribution according to GC-MS was corrected for fractional distribution due to the natural abundance of ^13C by multiple linear regression to obtain the excess mole fraction of mass isotopomers M0-M6 due to incorporation of infused labeled carbohydrates. From isotope dilution and infusion rates, the flux rates of the following metabolic pathways could be calculated: 1) de novo synthesis of G6P, 2) glucokinase, 3) glucose-6-phosphatase, 4) glycogenolysis, and 5) glycogen synthesis. The method of calculation was performed as described before, [52], [53].

Setting [6] is: read-out: EC50, DUSP1 induction.
The mark [7] stands for this setting: read-out: EC50, FKBP51 induction.

For `C[C@]12C=CC(=O)C=C1CC[C@@H]1[C@@H]2[C@@H](O)C[C@@]2(C)[C@H]1CC[C@]2(O)C(=O)CO` [prednisolone, reference compound], in the data set on THP-1 cells [1] (setting [6]), the EC50 was 0.0674 µM. For the same compound, the EC50 with THP-1 cells [1] (setting [7]) was determined as 0.0658 µM. In addition, in the data set with THP-1 cells [1] (read-out: EC50, GILZ induction), the EC50 was determined as 0.0602 µM. In the data set with THP-1 cells [1], the “Max. eff., DUSP1 induction” value came to 100%; the “Max. eff., FKBP51 induction” value came to 100%; the “Max. eff., GILZ induction” value was 100%. In the data set on THP-1 cells [2], the “Max. eff., mean repression of genes, microarray” value (from here on “Max. eff., mean repression”) worked out at 100% and the “Max. eff., mean induction of genes, microarray” value (shortened to “Max. eff., mean induction”) is 100%. For the same compound, the “fasting blood glucose levels vs vehicle” value in data set [3] is “significantly elevated”. Also, in data set [4], the “Max. eff., mean induction” value was determined as 100% and the “Max. eff., mean repression” value is listed as 100%. Further, in data set [5], the glucokinase flux rate result is recorded as “significantly decreased”, the “gluconeogenic flux (de novo synthesis of glucose-6-phosphate)” value is “no change”, the glucose-6-phosphatase flux result is listed as “Neither the glucose-6-phosphatase flux (A) nor the glycogen phosphorylase flux (B) were affected” and the glycogen phosphorylase flux entry is on record as “Neither the glucose-6-phosphatase flux (A) nor the glycogen phosphorylase flux (B) were affected”. In data set [5], the “glycogen synthase flux rate” value is “significantly decreased”; the liver glucose balance result was “significantly changed”; the liver glycogen balance entry is “significantly changed”; the “metabolic clearance rate of blood glucose” value is reported as “Neither Org 214007-0 nor prednisolone, at equi-efficacious dosages, effects”. Also, the “fasting blood glucose levels vs vehicle” value in data set [5] is on record as “significantly elevated”.

As for `Cc1nnsc1C(=O)N[C@H]1CCN2c3ccc(C#N)cc3[C@@H](C)c3ccccc3[C@@H]2C1` [Org 214007-0], in the data set on THP-1 cells [1] (setting [6]), the EC50 was 0.0064 µM. Moreover, in the data set on THP-1 cells [1] (setting [7]), the EC50 was 0.008 µM. Besides, the EC50 with THP-1 cells [1] (read-out: EC50, GILZ induction) turned out to be 0.0137 µM. Further, in the data set with THP-1 cells [1], the “Max. eff., DUSP1 induction” value is 41 (±6) %; the “Max. eff., FKBP51 induction” value is reported as 42 (±8) %; the “Max. eff., GILZ induction” value is reported as 13 (±5) %. Further, the “Max. eff., mean repression” value in the data set on THP-1 cells [2] is 48.3%. The “Max. eff., mean induction” value with THP-1 cells [2] (listed as Org) came out at 18.9%. Besides, the “fasting blood glucose levels vs vehicle” value in data set [3] is given as “not affected”. Further, in data set [4], the “Max. eff., mean induction” value worked out at 25.7% and the “Max. eff., mean repression” value is on record as 87.7%. For the same compound, in data set [5], the glucokinase flux rate entry is on record as “no significant effects”; the “gluconeogenic flux (de novo synthesis of glucose-6-phosphate)” value is given as “Neither Org 214007-0 nor prednisolone, at equi-efficacious dosages, effects”; the glucose-6-phosphatase flux result is “Neither the glucose-6-phosphatase flux (A) nor the glycogen phosphorylase flux (B) were affected”; the glycogen phosphorylase flux result is reported as “Neither the glucose-6-phosphatase flux (A) nor the glycogen phosphorylase flux (B) were affected”. In addition, in data set [5], the “glycogen synthase flux rate” value is listed as “no significant effects”; the liver glucose balance entry is recorded as “not affected”; the liver glycogen balance result is reported as “not effected”; the “metabolic clearance rate of blood glucose” value is listed as “Neither Org 214007-0 nor prednisolone, at equi-efficacious dosages, effects”. For the same compound, the “fasting blood glucose levels vs vehicle” value in data set [5] is recorded as “did not affect”.

(Values after publication PMC3495945, “Org 214007-0: A Novel Non-Steroidal Selective Glucocorticoid Receptor Modulator with Full Anti-Inflammatory Properties and Improved Therapeutic Index” (PLoS ONE, 2012).)
